The target of assay [1] is T1, Corticotropin-releasing factor receptor 2 (Homo sapiens, UniProt Q13324).
T1 sequence (Q13324 whole entry): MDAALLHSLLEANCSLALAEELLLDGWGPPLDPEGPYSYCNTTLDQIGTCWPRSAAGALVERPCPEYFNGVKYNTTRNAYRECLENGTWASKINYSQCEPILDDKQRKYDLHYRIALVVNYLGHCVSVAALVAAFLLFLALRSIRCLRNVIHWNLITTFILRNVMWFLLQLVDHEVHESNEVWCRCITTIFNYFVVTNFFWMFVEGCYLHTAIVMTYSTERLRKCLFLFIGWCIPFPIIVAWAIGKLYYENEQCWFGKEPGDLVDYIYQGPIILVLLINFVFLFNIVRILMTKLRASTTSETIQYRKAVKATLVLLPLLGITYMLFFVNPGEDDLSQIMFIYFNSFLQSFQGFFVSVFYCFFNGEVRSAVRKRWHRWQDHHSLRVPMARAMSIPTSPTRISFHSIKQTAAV

For the next assay, the target named is Glucagon receptor (Homo sapiens, UniProt P47871).
Chain of Glucagon receptor (P47871 whole entry): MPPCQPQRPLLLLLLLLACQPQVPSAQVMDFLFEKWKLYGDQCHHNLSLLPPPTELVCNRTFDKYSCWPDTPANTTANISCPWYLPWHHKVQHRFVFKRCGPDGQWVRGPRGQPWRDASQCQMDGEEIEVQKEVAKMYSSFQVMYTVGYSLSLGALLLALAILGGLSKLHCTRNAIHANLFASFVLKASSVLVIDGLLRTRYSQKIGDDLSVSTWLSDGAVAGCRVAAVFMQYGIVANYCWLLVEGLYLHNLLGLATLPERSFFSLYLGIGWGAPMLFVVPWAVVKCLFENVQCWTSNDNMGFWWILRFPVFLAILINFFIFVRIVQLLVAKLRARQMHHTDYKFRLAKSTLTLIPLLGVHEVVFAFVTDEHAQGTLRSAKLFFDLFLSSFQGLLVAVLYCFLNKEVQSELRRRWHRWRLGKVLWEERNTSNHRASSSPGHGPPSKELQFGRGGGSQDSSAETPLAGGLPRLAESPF
The next assay deals with T2, Progesterone receptor (Homo sapiens, UniProt P06401).
T2 sequence (P06401 whole entry): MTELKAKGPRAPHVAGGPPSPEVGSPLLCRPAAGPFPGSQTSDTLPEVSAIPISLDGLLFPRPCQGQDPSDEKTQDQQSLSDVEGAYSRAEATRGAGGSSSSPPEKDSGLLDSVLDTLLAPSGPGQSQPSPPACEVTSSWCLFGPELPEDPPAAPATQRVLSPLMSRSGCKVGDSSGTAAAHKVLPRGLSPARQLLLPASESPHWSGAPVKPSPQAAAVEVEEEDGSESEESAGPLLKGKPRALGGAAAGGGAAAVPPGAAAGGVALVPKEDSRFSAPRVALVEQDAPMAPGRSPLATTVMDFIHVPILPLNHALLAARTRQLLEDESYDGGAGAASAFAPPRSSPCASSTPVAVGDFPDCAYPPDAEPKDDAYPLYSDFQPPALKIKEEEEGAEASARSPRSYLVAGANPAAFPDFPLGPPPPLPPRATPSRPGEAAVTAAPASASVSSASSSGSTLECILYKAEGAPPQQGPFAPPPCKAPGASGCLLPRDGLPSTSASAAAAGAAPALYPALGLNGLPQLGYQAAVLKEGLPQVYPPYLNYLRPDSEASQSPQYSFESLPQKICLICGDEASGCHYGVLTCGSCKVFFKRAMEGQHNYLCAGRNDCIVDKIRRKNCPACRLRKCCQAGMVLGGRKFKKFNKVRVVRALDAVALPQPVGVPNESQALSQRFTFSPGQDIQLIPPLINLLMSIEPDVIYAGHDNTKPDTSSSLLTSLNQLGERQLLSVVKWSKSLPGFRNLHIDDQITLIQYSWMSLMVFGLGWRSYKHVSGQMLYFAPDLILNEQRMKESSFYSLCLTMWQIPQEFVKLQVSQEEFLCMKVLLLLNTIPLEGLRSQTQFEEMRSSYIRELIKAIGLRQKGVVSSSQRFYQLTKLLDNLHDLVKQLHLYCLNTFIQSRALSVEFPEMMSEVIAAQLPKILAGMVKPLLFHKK

Assay [2] has as its target T3, 5-hydroxytryptamine receptor 1A (Homo sapiens, UniProt P08908).
T3 sequence (P08908 whole entry): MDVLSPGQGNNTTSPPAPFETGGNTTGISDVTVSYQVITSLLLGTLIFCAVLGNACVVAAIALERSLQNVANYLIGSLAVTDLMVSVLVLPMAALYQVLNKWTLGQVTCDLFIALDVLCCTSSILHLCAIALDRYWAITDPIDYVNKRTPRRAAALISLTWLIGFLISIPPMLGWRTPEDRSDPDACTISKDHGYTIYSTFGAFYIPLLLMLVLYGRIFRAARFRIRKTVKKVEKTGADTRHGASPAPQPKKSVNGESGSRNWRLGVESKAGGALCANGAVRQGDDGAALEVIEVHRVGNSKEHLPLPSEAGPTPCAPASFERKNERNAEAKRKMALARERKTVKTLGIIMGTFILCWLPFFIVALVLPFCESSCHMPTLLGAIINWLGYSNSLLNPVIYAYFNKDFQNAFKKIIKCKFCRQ

In assay [3] the target is 5-hydroxytryptamine receptor 2A (Homo sapiens, UniProt P28223).
Chain of 5-hydroxytryptamine receptor 2A (P28223 whole entry): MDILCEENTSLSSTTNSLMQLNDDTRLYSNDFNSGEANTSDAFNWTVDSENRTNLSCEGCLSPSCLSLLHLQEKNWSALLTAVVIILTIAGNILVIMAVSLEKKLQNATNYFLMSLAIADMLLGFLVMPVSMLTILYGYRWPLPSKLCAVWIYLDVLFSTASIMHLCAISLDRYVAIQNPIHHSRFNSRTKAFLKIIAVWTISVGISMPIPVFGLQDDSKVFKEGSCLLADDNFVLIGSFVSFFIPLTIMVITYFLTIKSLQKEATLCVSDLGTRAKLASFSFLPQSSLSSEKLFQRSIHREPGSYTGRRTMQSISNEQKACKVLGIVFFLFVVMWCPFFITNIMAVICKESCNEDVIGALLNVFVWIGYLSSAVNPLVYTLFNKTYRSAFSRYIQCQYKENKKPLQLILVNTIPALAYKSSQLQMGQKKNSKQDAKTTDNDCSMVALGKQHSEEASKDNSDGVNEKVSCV
In assay [4] the target is T4, Peroxisome proliferator-activated receptor gamma (Homo sapiens, UniProt P37231).
T4 sequence (P37231 whole entry): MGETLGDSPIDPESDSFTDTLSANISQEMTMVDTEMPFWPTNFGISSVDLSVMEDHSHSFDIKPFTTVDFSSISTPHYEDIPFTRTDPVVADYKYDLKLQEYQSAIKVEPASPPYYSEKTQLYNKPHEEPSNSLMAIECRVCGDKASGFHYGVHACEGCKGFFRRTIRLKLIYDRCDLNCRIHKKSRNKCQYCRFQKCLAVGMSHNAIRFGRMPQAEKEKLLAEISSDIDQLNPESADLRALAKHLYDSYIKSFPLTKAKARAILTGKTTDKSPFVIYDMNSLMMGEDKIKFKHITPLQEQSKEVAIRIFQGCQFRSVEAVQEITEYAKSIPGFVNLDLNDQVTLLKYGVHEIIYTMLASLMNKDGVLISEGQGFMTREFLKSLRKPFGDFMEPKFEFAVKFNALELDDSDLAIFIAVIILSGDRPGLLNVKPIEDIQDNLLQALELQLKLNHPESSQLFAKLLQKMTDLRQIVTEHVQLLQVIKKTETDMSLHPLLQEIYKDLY
In kind it is functional.

Assay [5] addresses T4, Peroxisome proliferator-activated receptor gamma. In kind it is functional. This is another data set of the same source.
The target of assay [6] is Sodium channel protein type 5 subunit alpha (Homo sapiens, UniProt Q14524). Format: functional, cell-based.
Chain of Sodium channel protein type 5 subunit alpha (Q14524 whole entry): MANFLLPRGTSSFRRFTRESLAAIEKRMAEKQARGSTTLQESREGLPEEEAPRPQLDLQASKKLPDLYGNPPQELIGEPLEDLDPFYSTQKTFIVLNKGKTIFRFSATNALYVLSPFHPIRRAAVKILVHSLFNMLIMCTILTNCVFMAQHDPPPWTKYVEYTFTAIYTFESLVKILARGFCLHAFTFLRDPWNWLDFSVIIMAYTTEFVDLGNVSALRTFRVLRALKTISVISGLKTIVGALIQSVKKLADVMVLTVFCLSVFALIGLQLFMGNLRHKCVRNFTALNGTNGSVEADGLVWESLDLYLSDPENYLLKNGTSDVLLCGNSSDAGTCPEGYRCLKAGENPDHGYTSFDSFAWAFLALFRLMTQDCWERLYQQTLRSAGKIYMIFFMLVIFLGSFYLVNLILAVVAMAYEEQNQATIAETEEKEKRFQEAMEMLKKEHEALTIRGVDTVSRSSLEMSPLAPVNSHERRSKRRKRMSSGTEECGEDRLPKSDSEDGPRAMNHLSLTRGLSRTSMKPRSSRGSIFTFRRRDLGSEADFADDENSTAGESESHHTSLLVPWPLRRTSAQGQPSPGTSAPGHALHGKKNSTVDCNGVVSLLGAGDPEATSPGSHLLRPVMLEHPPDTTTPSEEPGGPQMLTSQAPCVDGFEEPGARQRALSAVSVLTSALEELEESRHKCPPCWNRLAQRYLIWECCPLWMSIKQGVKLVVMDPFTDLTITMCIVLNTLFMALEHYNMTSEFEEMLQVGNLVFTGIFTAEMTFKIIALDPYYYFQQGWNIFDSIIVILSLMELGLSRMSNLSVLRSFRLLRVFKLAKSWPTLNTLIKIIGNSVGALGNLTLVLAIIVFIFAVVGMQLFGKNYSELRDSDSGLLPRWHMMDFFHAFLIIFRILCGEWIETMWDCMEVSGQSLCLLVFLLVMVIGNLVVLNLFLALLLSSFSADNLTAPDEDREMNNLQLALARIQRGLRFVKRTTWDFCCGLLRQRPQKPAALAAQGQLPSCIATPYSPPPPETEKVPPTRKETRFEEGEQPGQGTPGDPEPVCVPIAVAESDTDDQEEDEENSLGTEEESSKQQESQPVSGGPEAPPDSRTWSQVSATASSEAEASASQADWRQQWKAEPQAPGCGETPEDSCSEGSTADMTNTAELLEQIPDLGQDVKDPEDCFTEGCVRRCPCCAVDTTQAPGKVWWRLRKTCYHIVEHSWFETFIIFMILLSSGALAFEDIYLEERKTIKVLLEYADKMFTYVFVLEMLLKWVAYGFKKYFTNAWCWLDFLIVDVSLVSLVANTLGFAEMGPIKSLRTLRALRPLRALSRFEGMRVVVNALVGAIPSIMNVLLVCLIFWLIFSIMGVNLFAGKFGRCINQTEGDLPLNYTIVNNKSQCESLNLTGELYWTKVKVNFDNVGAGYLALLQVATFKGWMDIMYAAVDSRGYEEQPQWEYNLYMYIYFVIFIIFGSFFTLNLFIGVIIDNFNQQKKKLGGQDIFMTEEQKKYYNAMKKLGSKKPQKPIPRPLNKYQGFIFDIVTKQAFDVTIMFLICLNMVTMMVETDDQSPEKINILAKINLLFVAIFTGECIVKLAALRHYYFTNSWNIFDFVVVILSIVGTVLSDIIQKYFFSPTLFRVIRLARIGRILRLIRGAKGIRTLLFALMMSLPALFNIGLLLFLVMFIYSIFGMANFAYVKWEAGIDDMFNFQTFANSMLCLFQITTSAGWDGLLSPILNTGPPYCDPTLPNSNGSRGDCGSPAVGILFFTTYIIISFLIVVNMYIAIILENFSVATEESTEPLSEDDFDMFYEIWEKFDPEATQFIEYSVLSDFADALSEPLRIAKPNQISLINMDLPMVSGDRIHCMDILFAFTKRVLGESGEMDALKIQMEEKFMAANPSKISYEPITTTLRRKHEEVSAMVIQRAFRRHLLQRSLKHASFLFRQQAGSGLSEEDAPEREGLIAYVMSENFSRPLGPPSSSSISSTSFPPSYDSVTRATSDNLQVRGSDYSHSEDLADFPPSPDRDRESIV
In another assay the target is T5, D(4) dopamine receptor (Homo sapiens, UniProt P21917).
T5 sequence (P21917 whole entry): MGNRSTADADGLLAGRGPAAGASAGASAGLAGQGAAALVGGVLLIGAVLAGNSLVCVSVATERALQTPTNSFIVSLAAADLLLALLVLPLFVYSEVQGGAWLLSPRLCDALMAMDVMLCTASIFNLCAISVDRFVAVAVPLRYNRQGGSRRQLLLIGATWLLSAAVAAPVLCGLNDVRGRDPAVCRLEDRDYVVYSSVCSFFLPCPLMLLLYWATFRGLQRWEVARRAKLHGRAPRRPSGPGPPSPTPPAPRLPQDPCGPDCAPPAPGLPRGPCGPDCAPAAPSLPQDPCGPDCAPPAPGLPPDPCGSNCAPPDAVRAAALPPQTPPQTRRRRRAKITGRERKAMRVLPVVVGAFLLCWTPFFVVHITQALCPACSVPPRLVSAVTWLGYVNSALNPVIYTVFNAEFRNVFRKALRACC
Also: assay procedure not described here.

Regarding `CC(C)(N)Cc1ccccc1` [PHENTERMINE], the half-maximal activity concentration (AC50) in assay [1] was more than 30 µM; at Glucagon receptor, more than 30 µM; on Progesterone receptor, more than 30 µM; in assay [2], more than 10 µM; in assay [3], more than 10 µM.

Turning to `CCCCC[C@H](O)CC[C@@H]1[C@H]2Cc3cccc(OCC(=O)O)c3C[C@H]2C[C@H]1O` [TREPROSTINIL], the AC50 in [4] and in assay [5] was more than 30 µM in each case.

For `CCN(CC)C(C)C(=O)c1ccccc1` (stereo unspecified) [DIETHYLPROPION], the half-maximal activity concentration (AC50) in assay [1] is more than 30 µM; on Glucagon receptor it was more than 30 µM; at Progesterone receptor it was 0.22 µM; in assay [2], more than 10 µM.

On to `Nc1cc(N2CCCCC2)nc(N)[n+]1[O-]` [MINOXIDIL], for which the values for the half-maximal activity concentration (AC50) (on Progesterone receptor; in assay [2]) were more than 30 µM and more than 10 µM, respectively.

With TEPRENONE, the AC50 was more than 30 µM on Progesterone receptor and more than 10 µM in [2].

Regarding `COc1ccc(-n2nc(C(N)=O)c3c2C(=O)N(c2ccc(N4CCCCC4=O)cc2)CC3)cc1` [APIXABAN], the half-maximal activity concentration (AC50) is more than 30 µM in assay [4], more than 30 µM in [5] and more than 50 µM in assay [6].

Take `CC(NC(C)(C)C)C(=O)c1cccc(Cl)c1` (stereo unspecified) [BUPROPION]: the half-maximal activity concentration (AC50) in assay [1] is more than 30 µM; on D(4) dopamine receptor it was more than 10 µM; on Glucagon receptor, more than 30 µM; at Progesterone receptor, more than 30 µM; in assay [6], more than 30 µM; in assay [2] it was more than 10 µM.

With `CN1C2CCCC1CC(NC(=O)c1nn(C)c3ccccc13)C2` (stereo unspecified) [GRANISETRON], the AC50 in assay [1] was more than 30 µM; on D(4) dopamine receptor, more than 10 µM; on Glucagon receptor, more than 30 µM; at Progesterone receptor it was more than 30 µM; in [6], more than 30 µM; in assay [2] it was more than 10 µM.

With `CC(=O)OCC1=C(C(=O)O)N2C(=O)[C@@H](NC(=O)Cc3cccs3)[C@H]2SC1` [CEPHALOTHIN], the AC50 in [4] and in assay [5] was more than 30 µM each time.

Regarding `CCN(CC)CC(=O)Nc1c(C)cccc1C` [LIDOCAINE], the concentration at half-maximal activity (AC50) (in assay [1]; at Glucagon receptor; at Progesterone receptor) was more than 30 µM each time.

For the molecule `O=C(O[C@H]1C[N+]2(CCCOc3ccccc3)CCC1CC2)C(O)(c1cccs1)c1cccs1` [ACLIDINIUM BROMIDE], the half-maximal activity concentration (AC50) in assay [1] was more than 30 µM; on D(4) dopamine receptor it was more than 10 µM; on Glucagon receptor, more than 30 µM; on Progesterone receptor it was more than 30 µM; in assay [2], more than 10 µM; in assay [3] it was more than 10 µM.

Regarding `CN1C(=O)CN=C(c2ccccc2F)c2cc([N+](=O)[O-])ccc21` [FLUNITRAZEPAM], the concentration at half-maximal activity (AC50) in assay [1] was more than 30 µM; at D(4) dopamine receptor, more than 10 µM; at Glucagon receptor it was more than 30 µM; at Progesterone receptor, more than 10 µM; in assay [2], more than 10 µM; in [3] it was more than 10 µM.

On to `O=C(O)c1ccc2nc(-c3cc(Cl)cc(Cl)c3)oc2c1`, for which the half-maximal activity concentration (AC50) in assay [6] was more than 30 µM.

Turning to `Cc1nnc2n1-c1ccc(Cl)cc1C(c1ccccc1)=NC2` [ALPRAZOLAM], the concentration at half-maximal activity (AC50) was more than 30 µM in [1]; more than 10 µM on D(4) dopamine receptor; more than 30 µM on Glucagon receptor; more than 30 µM on Progesterone receptor; more than 10 µM in assay [2].

Take `COC(=O)c1ccc2c(c1)NC(=O)/C2=C(\Nc1ccc(N(C)C(=O)CN2CCN(C)CC2)cc1)c1ccccc1` [NINTEDANIB]: the AC50 in assay [4] was more than 30 µM; in assay [5], 4.8 µM; in assay [6], 13 µM.

Take `N=C(N)NC(=O)Cc1c(Cl)cccc1Cl` [GUANFACINE]: the figures for the AC50 (on Progesterone receptor; in [2]) were more than 30 µM and 11.5 µM, respectively.

Regarding `CC1=C(CC(=O)O)c2cc(F)ccc2/C1=C\c1ccc([S+](C)[O-])cc1` (stereo unspecified), the half-maximal activity concentration (AC50) in assay [1] is more than 30 µM; on Glucagon receptor, more than 30 µM; on Progesterone receptor, more than 30 µM; in assay [2], more than 10 µM.

For `Cc1cnc(Nc2ccc(OCCN3CCCC3)cc2)nc1Nc1cccc(S(=O)(=O)NC(C)(C)C)c1` [FEDRATINIB], the AC50 on Progesterone receptor was more than 30 µM; in [6] it was 7.7 µM; in assay [2] it was more than 10 µM; in assay [3], 3.12 µM.

As to `CCCCCCOC(=O)NC(=N)c1ccc(NCc2nc3cc(C(=O)N(CCC(=O)OCC)c4ccccn4)ccc3n2C)cc1` [DABIGATRAN ETEXILATE], the AC50 in assay [4] is more than 30 µM; in assay [5] it was more than 30 µM; in assay [6], 3 µM.

In turn, `OCCN(CCO)c1nc(N2CCCCC2)c2nc(N(CCO)CCO)nc(N3CCCCC3)c2n1` [DIPYRIDAMOLE] had an AC50 on Progesterone receptor of more than 30 µM.

With `CC1=C(C(=O)O)N2C(=O)[C@@H](NC(=O)[C@H](N)C3=CCC=CC3)[C@H]2SC1` [CEPHRADINE], the half-maximal activity concentration (AC50) in assay [4] and in assay [5] was more than 30 µM each time.

For the molecule `O=C1CN=C(c2ccccc2Cl)c2cc([N+](=O)[O-])ccc2N1` [CLONAZEPAM], the AC50 in assay [1] is more than 30 µM; at D(4) dopamine receptor, more than 10 µM; at Glucagon receptor, more than 30 µM; at Progesterone receptor it was more than 30 µM; in assay [2], more than 10 µM.

Consider `CC1Cc2ccccc2N1NC(=O)c1ccc(Cl)c(S(N)(=O)=O)c1` (stereo unspecified) [INDAPAMIDE], for which the AC50 in assay [2] is more than 10 µM.

`C=C(c1ccccc1OCc1cccc(Cl)c1)n1ccnc1` [CROCONAZOLE]: the concentration at half-maximal activity (AC50) in assay [2] is more than 10 µM; in assay [3], 1.11 µM.

`CCOC(=O)C1=C(C)NC(C)=C(C(=O)OC)C1c1cccc(Cl)c1Cl` (stereo unspecified) [FELODIPINE]: the AC50 is more than 30 µM in assay [1]; more than 10 µM on D(4) dopamine receptor; more than 30 µM on Glucagon receptor; 2.6 µM at Progesterone receptor; more than 10 µM in [2].

As to `CCN(C(C)=O)c1cccc(-c2ccnc3c(C#N)cnn23)c1` [ZALEPLON], the AC50 in assay [2] was more than 10 µM.

Broadly, the AC50 is the concentration at which the activity in the assay is half-maximal. Read a low AC50 as activity at low concentration.
